According to patent US20200352889A1, “CYSTATHIONINE COMPOSITIONS AND METHODS OF TREATMENT FOR HEALTH CONDITIONS” (THE REGENTS OF THE UNIVERSITY OF COLORADO, A BODY CORPORATE, priority 2011, published 2020):
“Also recorded” adds a separate entry of the source.

How the values were obtained:
[1] = tested on: C57BL/6 WT mice treated with tunicamycin; test: Tunicamycin-induced hepatic and renal damage in WT mice in the presence and absence of PPG; assay type: in vivo, mouse
Description: In order to investigate the effects of elevated cystathionine upon the response to ER stress, wild type mice (n=6) were exposed to a single sub-lethal intraperitoneal injection of tunicamycin in the presence and absence of the CGL inactivating compound PPG. WT mice were randomly assigned to one of four treatment groups (n=6 for each group): 1) control, IP injected with PBS; 2) I.P. injection with PPG; 3) single I.P […] tunicamycin and 4) tunicamycin+PPG. In groups 2 and 4, PPG treatment was maintained by daily injection until sacrifice at three days post vehicle/tunicamycin injection. After the completion of this treatment regime, all mice were anaesthetized (isoflourane/oxygen) and sacrificed by decapitation, and blood samples were collected for plasma analysis. Livers and kidneys were removed, weighed and then samples were either immersion-fixed overnight in 4% paraformaldehyde in PBS (pH 7.3) for subsequent histological analysis or were snap frozen in liquid nitrogen and examined for morphological, histological and biochemical analyses.
Propensity for hepatic steatosis was examined in HO and wild type control mice using a methionine-choline deficient amino acid defined and iron supplemented diet (#518810 Dyets Inc., Bethlehem, Pa.)) and an isocaloric amino acid defined Lombardi choline sufficient diet with methionine control diet (518754, Dyets Inc., Bethlehem, Pa.) for 19 days as described previously (7). Experimental hypercystathionemia was induced by IP injection of the CGL inactivator PPG (50 mg·day-1·kg-1) as described previously (8). ER stress was induced in mice by a single IP injection with tunicamycin at 0.5 mg/kg body weight (volume <=1.0 ml). Control mice were sham treated by injection with an equal volume of PBS (9,10).
Tissues were immersion-fixed overnight in 4% paraformaldehyde in PBS (pH 7.3). Paraffin embedded sections (5 μm) were stained for examination with hematoxylin and eosin (H and E). Cells undergoing apoptosis were identified by labeling their DNA 3′-OH nick ends using a variant of terminal deoxynucleotidyl transferase-mediated dUTP nick end-labeling (TUNEL) staining. Staining was performed according to the manufacturer's instruction with ApopTag® Peroxidase in Situ Apoptosis Detection Kit (Millipore, Billerica, Mass.). Tissue sections were deparaffinized with xylene and washed in succession with different concentrations of ethanol (absolute, 95% and 70%). Tissue sections were then digested with proteinase K (20 μg/ml) for 15 min. Endogenous peroxidase activity was quenched with 3% H2O2 in PBS for 5 min. The slides were immersed in terminal deoxynucleotidyl transferase (TdT) buffer containing digoxigenin-labeled nucleotides at 37° C. for 1 h. After washing, anti-digoxigenin-peroxidase was added to cover the slides and incubated in a humid chamber at room temperature for 30 min. After washing with PBS, the slides were stained with diaminobenzidine and then counterstained with 1% methyl green. Light microscopy was performed to quantify the apoptotic cells, by counting cells in ten randomly selected fields (×100 magnification) of each slide with the following formula: number of apoptotic cells/total number of cells counted×100.
A party unaware of the animal's genotype or treatment group performed both histological analysis, of stained slides and TUNEL staining. Liver injury was assessed by determining plasma levels of alanine aminotransferase (ALT) activity using an enzyme-coupled assay with lactic dehydrogenase (LDH) as described previously (12) Liver lipid was extracted using the procedure of Bligh and Dyer (13) and after evaporation of the organic solvent, the triacylglycerol content of each sample was measured in duplicate using an enzymatic method (Sigma-Aldrich).

hepatic CGL = details: I.P. injection; cited from earlier work
[2] = tested on: WT mice treated with thapsagargin; test: Thapsagargin-induced acute tubular necrosis in WT mice in the presence and absence of PPG; assay type: in vivo, mouse; details: single IP thapsagargin + daily PPG, three days
Description: (§1) Wild type mice (WT; n=6) to a single sub-lethal intraperitoneal injection of thapsagargin in the presence and absence of the CGL inactivating compound propargylglycine (PPG). WT mice were randomly assigned to one of four treatment groups (n=6 for each group): 1). control, IP injected with PBS (See FIG. 13, Panel A); 2). I.P. injection with PPG (See FIG. 13, Panel B); 3). single I.P […] thapsagargin (See FIG. 13, Panel C); and 4). thapsagargin+PPG (See FIG. 13, Panel D). In groups 2 and 4, PPG treatment was maintained by daily injection until sacrifice at three days post vehicle/thapsagargin injection. After the completion of this treatment regime, all mice were anaesthetized (isoflourane/oxygen) and sacrificed by decapitation.
as §1, with “(See” for “(See FIG. 13,”, “After the completion of this treatment regime, all mice were anaesthetized (isoflourane/oxygen) and sacrificed by decapitation.” left out

[3] = tunicamycin 0.5 mg/kg single IP + daily PPG, three days

## C#CCC(N)C(=O)O (racemic) [PPG, D,L-2-amino-4-pentynoic acid]
[1]; PPG alone control group
  apoptosis (Tunel staining): No apoptosis was observed
  morphological alteration (histology): no significant morphological alteration
  size and appearance of livers and kidneys: normal in size and appearance
[1]; [3]
  liver weight vs control groups: did not differ significantly from the control groups
  plasma ALT levels vs control groups: did not differ significantly from the control groups
  triglyceride levels vs control groups: did not differ significantly from the control groups
[1]; tunicamycin + PPG, three days
  gross appearance of livers and kidneys: appeared ostensibly normal; also recorded: this effect was not apparent
  tunicamycin-induced morphological changes in liver and kidney (H and E histology): effectively ablated; also recorded: significantly attenuated
[1]; tunicamycin treated mice pretreated with PPG
  apoptotic cells in kidney (Tunel staining): No apoptotic cells were observed
Hepatic CGL
  duration of cystathionine accumulation: approximately one day
  inactivation of hepatic CGL activity: rapidly inactivate
  time to accumulation of cystathionine: within one hour
[2]
  thapsagargin-induced renal morphological changes (acute tubular necrosis, histology): completely ablated
